This is an account of results in patent publication US20090209550A1, “SUBSTITUTED TRIAZOLOPYRIDINES” (AUSPEX PHARMACEUTICALS, INC., priority 2008, published 2009).

Structures can show the parent of a compound that is named as a salt.

The data set can be described thus: In vitro liver microsomal stability assay. It is filed as in vitro ADME. Conditions: '+' marks the bin; human liver microsomes 1 mg per mL protein, NADPH-generating system, 1 μM, 37° C.; compared to non-isotopically enriched drug. On the procedure:
Liver microsomal stability assays are conducted at 1 mg per mL liver microsome protein with an NADPH-generating system in 2% NaHCO3 (2.2 mM NADPH, 25.6 mM glucose 6-phosphate, 6 units per mL glucose 6-phosphate dehydrogenase and 3.3 mM MgCl2). Test compounds are prepared as solutions in 20% acetonitrile-water and added to the assay mixture (final assay concentration 1 μM) and incubated at 37° C. Final concentration of acetonitrile in the assay should be <1%. Aliquots (50 μL) are taken out at times 0, 0.25, […], and 1 hours, and diluted with ice cold acetonitrile (200 μL) to stop the reactions. Samples are centrifuged at 12,000 RPM for 10 min to precipitate proteins. Supernatants are transferred to micro centrifuge tubes and stored for LC/MS/MS analysis of the degradation half-life of the test compounds.

Consider `O=c1n(CCCN2CCN(c3cccc(Cl)c3)CC2)nc2ccccn12` [Example 1, 2-(3-(4-(3-Chlorophenyl)piperazin-1-yl)propyl)-[1,2,4]triazolo[4,3-a]pyridin-3(2H)one, reference compound], for which the “% increase of HLM degradation half-life, 50%-150%” value is on record as “+ (50%-150%)”.
For `[2H]C([2H])(CCn1nc2ccccn2c1=O)N1CCN(c2cccc(Cl)c2)CC1` [Example 2, 2-(3-(4-(3-Chlorophenyl)piperazin-1-yl)propyl-3,3-d2)-[1,2,4]triazolo[4,3-a]pyridin-3(2H)one hydrochloride], the “% increase of HLM degradation half-life, >150%” value was “+ (>150%)”.
On to `[2H]C([2H])(CCN1CCN(c2cccc(Cl)c2)CC1)n1nc2ccccn2c1=O` [Example 3, 2-(3-(4-(3-Chlorophenyl)piperazin-1-yl)propyl-1,1-d2)-[1,2,4]triazolo[4,3-a]pyridin-3(2H)one hydrochloride], for which the “% increase of HLM degradation half-life, 0%-50%” value is recorded as “+ (0%-50%)”.
Turning to `[2H]C([2H])(CC([2H])([2H])n1nc2ccccn2c1=O)N1CCN(c2cccc(Cl)c2)CC1` [Example 4, 2-(3-(4-(3-Chlorophenyl)piperazin-1-yl)propyl-1,1,3,3-d4)-[1,2,4]triazolo[4,3-a]pyridin-3(2H)one hydrochloride], the “% increase of HLM degradation half-life, 0%-50%” value is listed as “+ (0%-50%)”.
The same measure, in the same setting: in the case of `[2H]C([2H])(N1CCN(c2cccc(Cl)c2)CC1)C([2H])([2H])C([2H])([2H])n1nc2ccccn2c1=O` [Example 5, 2-(3-(4-(3-Chlorophenyl)piperazin-1-yl)propyl-1,1,2,2,3,3-d6)-[1,2,4]triazolo[4,3-a]pyridin-3(2H)one hydrochloride] it was “+ (0%-50%)”.
